# Measured values: US20170224683A1, “TREATMENT OF MELANOMA BY BLOCKING BENZAMIL SENSITIVE ION CHANNELS/EXCHANGERS” (The Board of Trustees of the Leland Stanford Junior …, priority 2014, published 2017)
# Legend:
# Type in all cases: cell-based
# MM485 melanoma cell line = assay: MTT proliferation assay, MM485; settings: 50 uM
# Method: (§1) FIG. 3A-3D: Benzamil reduce invasion and proliferation of melanoma cell lines expressing increased Rac1GTP. […] Stimulation with Benzamil at 50 uM was not toxic, but reduced proliferation in COLO829,MM485,CHL1 melanoma cell lines similar to V12 Rac1 mutant primary melanocytes FIG. 3D.
# (§2) Benzamil reduce invasion and proliferation of melanoma cell lines expressing increased Rac1GTP. […] Stimulation with Benzamil at 50 μM was not toxic, but reduced proliferation in COLO829,MM485,CHL1 melanoma cell lines similar to V12 Rac1 mutant primary melanocytes.
# (§3) MTT proliferation assay. 25000 melanocytes were plated in each well in a 96 well plate, and incubated with 100 ul DMEM with 10% FBS 1% AA for 24 hours. 10 ul MTT reagent (MTT proliferation assay, ATCC, Manassas, US) was added for 4 hours, 100 ul detergent was added to each well for 2 hours., and absorbance read at 570 nm (Spectramax M5, Molecular Devices, US), normalized to cell-free control absorbance.
# [1] = system: V12 Rac1 mutant primary foreskin-derived melanocytes; assay: MTT proliferation assay, V12 Rac1 melanocytes
# Method: FIG. 1A-1C: Benzamil inhibits V12 Rac1 driven melanocyte invasion and proliferation in vitro. […] Invasion was abolished in conditions treated with 50 uM Benzamil (FIG. 1A, FIG. 1B).
# Invasion was abolished in conditions treated with 50 μM Benzamil.
# as §3
# [2] = system: COLO829 melanoma cell line; assay: MTT proliferation assay, COLO829; settings: 50 uM
# Method: as §1, §2, §3
# CHL1 melanoma cell line = assay: MTT proliferation assay, CHL1; settings: 50 uM
# Method: as §1, §2, §3
smiles,measurement,setting,value
"NC(=NCc1ccccc1)NC(=O)c1nc(Cl)c(N)nc1N [Benzamil, benzyl amiloride]",toxicity,MM485 melanoma cell line,not toxic
same,Dosage tolerated in vitro (assessed by detectable proliferation),[1],up to 100 uM
same,toxicity,[2],not toxic
same,toxicity,CHL1 melanoma cell line,not toxic
